Results on nine compounds are retold here after ChEMBL document CHEMBL2021858, “The effect of vindoline C-16 substituents on the biomimetic coupling reaction: synthesis and cytotoxicity evaluation of the corresponding vinorelbine analogues” (Bioorg Med Chem Lett, 2012).

One test relates to A549. The test can be described thus: Cytotoxicity against human A549 cells by MTT assay. Type of test: functional, cell-based. (Tetrazolium assays rely on reduction of a dye to a coloured formazan, in cell work by metabolically active cells.)
For the next test, the system named is HeLa. The test can be described thus: Cytotoxicity against human HeLa cells by MTT assay. Type of test: functional, cell-based.

On to `CCOc1cc2c(cc1[C@@]1(C(=O)OC)C[C@@H]3C=C(CC)CN(Cc4c1[nH]c1ccccc41)C3)[C@@]13CCN4CC=C[C@@](CC)([C@@H](OC(C)=O)[C@](O)(COC(C)=O)[C@@H]1N2C)[C@H]43`, for which the values for the IC50 in the test on A549 and in the test on HeLa were 13 nM and 11 nM, respectively.
Turning to `CCCCCCCOc1cc2c(cc1[C@@]1(C(=O)OC)C[C@@H]3C=C(CC)CN(Cc4c1[nH]c1ccccc41)C3)[C@@]13CCN4CC=C[C@@](CC)([C@@H](OC(C)=O)[C@](O)(COC(C)=O)[C@@H]1N2C)[C@H]43`, the IC50 (usually the point on the concentration scale where inhibition reaches its midpoint) was determined as 331 nM in the test on A549 and 317 nM with HeLa.
With `CCCOc1cc2c(cc1[C@@]1(C(=O)OC)C[C@@H]3C=C(CC)CN(Cc4c1[nH]c1ccccc41)C3)[C@@]13CCN4CC=C[C@@](CC)([C@@H](OC(C)=O)[C@](O)(COC(C)=O)[C@@H]1N2C)[C@H]43`, the IC50 in the test on A549 came out at 51 nM; in the test with HeLa it was 45 nM.
The like results for `CCCCOc1cc2c(cc1[C@@]1(C(=O)OC)C[C@@H]3C=C(CC)CN(Cc4c1[nH]c1ccccc41)C3)[C@@]13CCN4CC=C[C@@](CC)([C@@H](OC(C)=O)[C@](O)(COC(C)=O)[C@@H]1N2C)[C@H]43` were, in that order, 94 nM and 89 nM.
`CCC1=C[C@@H]2CN(C1)Cc1c([nH]c3ccccc13)[C@@](C(=O)OC)(c1cc3c(cc1OC(C)C)N(C)[C@H]1[C@@](O)(COC(C)=O)[C@H](OC(C)=O)[C@]4(CC)C=CCN5CC[C@]31[C@@H]54)C2`: the 50% inhibitory concentration (IC50) with A549 came out at 236 nM; in the test with HeLa, 209 nM.
Consider `CCC1=C[C@@H]2CN(C1)Cc1c([nH]c3ccccc13)[C@@](C(=O)OC)(c1cc3c(cc1OC)N(C)[C@H]1[C@@](O)(COC(C)=O)[C@H](OC(C)=O)[C@]4(CC)C=CCN5CC[C@]31[C@@H]54)C2`, for which the concentration for half-maximal inhibition (IC50) with A549 turned out to be 7 nM; in the test on HeLa, 5 nM.
The like results for `CCC1=C[C@@H]2CN(C1)Cc1c([nH]c3ccccc13)[C@@](C(=O)OC)(c1cc3c(cc1OC)N(C)[C@H]1[C@@](O)(C(=O)OC)[C@H](OC(C)=O)[C@]4(CC)C=CCN5CC[C@]31[C@@H]54)C2` [VINORELBINE] were, in that order, 10 nM and 9 nM.
Consider `CCC1=C[C@@H]2CN(C1)Cc1c([nH]c3ccccc13)[C@@](C(=O)OC)(c1cc3c(cc1OCCOC(C)=O)N(C)[C@H]1[C@@](O)(COC(C)=O)[C@H](OC(C)=O)[C@]4(CC)C=CCN5CC[C@]31[C@@H]54)C2`, for which the values for the IC50 in the test with A549 and in the test with HeLa were 83 nM and 77 nM, respectively.
The like results for `CCC1=C[C@@H]2CN(C1)Cc1c([nH]c3ccccc13)[C@@](C(=O)OC)(c1cc3c(cc1OC(C)=O)N(C)[C@H]1[C@@](O)(COC(C)=O)[C@H](OC(C)=O)[C@]4(CC)C=CCN5CC[C@]31[C@@H]54)C2` were, in that order, 56 nM and 49 nM.
